Results taken from patent publication US20080181942A1, “Delta-9-THC compositions and methods for treating symptoms associated with multiple sclerosis” (University of Plymouth, priority 2006, published 2008).

Experiments:
[1] = system: patients with multiple sclerosis with problematic spasticity; assay: Ashworth score of spasticity, randomized placebo-controlled study; format: in vivo, human; settings: baseline to 13 weeks follow-up (visit 7)
[2] = system: patients with multiple sclerosis; assay: category-rating scales, patient reporting of secondary outcomes; format: in vivo, human; settings: category rating scale
[3] = system: patients with multiple sclerosis; assay: patient assessment of treatment benefit at visit 8; format: in vivo, human
[4] = system: patients with multiple sclerosis; assay: adverse events reported by patients

CCCCCc1cc(O)c2c(c1)OC(C)(C)[C@@H]1CCC(C)=C[C@@H]21 (relative stereo) [delta-9-THC, (6aR-trans)-6a,7,8,10a-tetrahydro-6,6,9-trimethyl-3-pentyl-6H-dibenzo[b,d]pyran-1-ol]
Mean (SD) change in Ashworth score, upper-body muscle groups (baseline minus follow-up) [1]: 0.48 (4.70) | Depression: Deterioration ([2]; number of patients): 42 | Depression: Improvement ([2]; number of patients): 36 | Depression: Same ([2]; number of patients): 47 | Energy: Deterioration ([2]; number of patients): 49 | Energy: Improvement ([2]; number of patients): 61 | Energy: Same ([2]; number of patients): 63 | Irritability: Deterioration ([2]; number of patients): 32 | Irritability: Improvement ([2]; number of patients): 37 | Irritability: Same ([2]; number of patients): 42 | Pain: Deterioration ([2]; number of patients): 22 | Pain: Improvement ([2]; number of patients): 64 | Pain: Same ([2]; number of patients): 43 | Shake/tremor: Deterioration ([2]; number of patients): 32 | Shake/tremor: Improvement ([2]; number of patients): 52 | Shake/tremor: Same ([2]; number of patients): 44 | Sleep: Deterioration ([2]; number of patients): 24 | Sleep: Improvement ([2]; number of patients): 71 | Sleep: Same ([2]; number of patients): 57 | Spasms: Deterioration ([2]; number of patients): 27 | Spasms: Improvement ([2]; number of patients): 81 | Spasms: Same ([2]; number of patients): 49 | Spasticity: Deterioration ([2]; number of patients): 47 | Spasticity: Improvement ([2]; number of patients): 89 | Spasticity: Same ([2]; number of patients): 40 | Tiredness: Deterioration ([2]; number of patients): 76 | Tiredness: Improvement ([2]; number of patients): 35 | Tiredness: Same ([2]; number of patients): 46 | Depression: Deterioration ([2]; percent of patients): (34%) | Depression: Improvement ([2]; percent of patients): (29%) | Depression: Same ([2]; percent of patients): (38%) | Energy: Deterioration ([2]; percent of patients): (28%) | Energy: Improvement ([2]; percent of patients): (35%) | Energy: Same ([2]; percent of patients): (36%) | Irritability: Deterioration ([2]; percent of patients): (29%) | Irritability: Improvement ([2]; percent of patients): (33%) | Irritability: Same ([2]; percent of patients): (38%) | Pain: Deterioration ([2]; percent of patients): (17%) | Pain: Improvement ([2]; percent of patients): (50%) | Pain: Same ([2]; percent of patients): (33%) | Shake/tremor: Deterioration ([2]; percent of patients): (25%) | Shake/tremor: Improvement ([2]; percent of patients): (41%) | Shake/tremor: Same ([2]; percent of patients): (34%) | Sleep: Deterioration ([2]; percent of patients): (16%) | Sleep: Improvement ([2]; percent of patients): (47%) | Sleep: Same ([2]; percent of patients): (38%) | Spasms: Deterioration ([2]; percent of patients): (22%) | Spasms: Improvement ([2]; percent of patients): (49%) | Spasms: Same ([2]; percent of patients): (29%) | Spasticity: Deterioration ([2]; percent of patients): (27%) | Spasticity: Improvement ([2]; percent of patients): (51%) | Spasticity: Same ([2]; percent of patients): (23%) | Tiredness: Deterioration ([2]; percent of patients): (48%) | Tiredness: Improvement ([2]; percent of patients): (22%) | Tiredness: Same ([2]; percent of patients): (29%) | Symptom Improvement, Bladder: No ([3]; number of patients): 97 | Symptom Improvement, Bladder: Yes ([3]; number of patients): 67 | Symptom Improvement, Pain: No ([3]; number of patients): 64 | Symptom Improvement, Pain: Yes ([3]; number of patients): 64 | Symptom Improvement, Spasticity: No ([3]; number of patients): 73 | Symptom Improvement, Tremor: No ([3]; number of patients): 67 | Symptom Improvement, Tremor: Yes ([3]; number of patients): 44 | Symptom Improvement, Bladder: No ([3]; percent of patients): 59% | Symptom Improvement, Bladder: Yes ([3]; percent of patients): 40% | Symptom Improvement, Pain: No ([3]; percent of patients): 50% | Symptom Improvement, Pain: Yes ([3]; percent of patients): 50% | Symptom Improvement, Spasticity: No ([3]; percent of patients): 40% | Symptom Improvement, Spasticity: Yes ([3]; percent of patients): 60% | Symptom Improvement, Tremor: No ([3]; percent of patients): 60% | Symptom Improvement, Tremor: Yes ([3]; percent of patients): 40% | incidences of MS relapse ([4]; by comparison with placebo): greatly reduced | Adverse Event: Blocked/insertion of suprapubic catheter ([4]; number reported): 0 | Adverse Event: Constipation ([4]; number reported): 0 | Adverse Event: Grand mal seizure ([4]; number reported): 0 | Adverse Event: MS relapse or possible relapse ([4]; number reported): 1 | Adverse Event: Other ([4]; number reported): 11 | Adverse Event: Pneumonia ([4]; number reported): 2 | Adverse Event: Urinary tract infection ([4]; number reported): 3
